Data as given in patent publication US20090324700A1, “METHODS AND COMPOSITIONS FOR THE INHIBITION OF CATHEPSINS” (priority 2003, published 2009).
Residues, ends and D or L forms follow the SMILES beside them. *: point of attachment. Cbz = O=C(OCc1ccccc1)*; CH2F = FC*

Legend:
[1] = test system: RelA^−/− MEFs; test: Survival assay, TNF-α and CHX, RelA^−/− MEFs; type: cell-based, mouse; settings: CHX 0.1 μg/ml
[2] = target: T1, cathepsin B (Mus musculus, UniProt P10605); test: Cathepsin B activity in crude cytoplasmic extracts, RelA^−/− MEFs; type: cell-based
T1 construct: endogenous in cells; host or cells: RelA-/- or RelA+/+ MEFs (retrovirally transduced with GFP, RelA, Spi2A or antisense Spi2A)
T1 sequence (P10605 80-333): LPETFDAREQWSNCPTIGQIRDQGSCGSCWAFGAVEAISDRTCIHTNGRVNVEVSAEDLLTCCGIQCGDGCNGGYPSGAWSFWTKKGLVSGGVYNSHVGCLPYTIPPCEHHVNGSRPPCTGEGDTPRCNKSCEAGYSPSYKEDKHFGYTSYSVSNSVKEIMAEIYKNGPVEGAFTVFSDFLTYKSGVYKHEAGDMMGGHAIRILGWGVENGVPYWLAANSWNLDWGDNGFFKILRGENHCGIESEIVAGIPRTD
Procedure: Survival Assays. Although RelA^−/− MEFs are markedly more sensitive to TNF-α compared to RelA^+/+ MEFs, low levels of CHX (0.1 μg/ml) were used in the survival assays. This was to suppress any protective activity of constitutively active non-RelA NF-κB molecules that are present in RelA^−/− MEFs (FIG. 4). Thus, RelA^−/− MEFs were treated with CHX and TNF-α (R&D) and the number of live GFP-positive adherent cells was counted by flow cytometry after 16 h, if not indicated otherwise. Live cells were defined as those that excluded propidium iodide (PI-negative) and had the appropriate size, as defined by forward and side scatter characteristics (Coligan et al., 1995). For RelA^+/+ MEFs, TNF-α-cytotoxicity was determined after 16 h with CHX (10 μg/ml), if not indicated otherwise. Cathepsin B activity was inhibited by a 1 h pre-treatment of MEFs with CA-074 Me (30 μM) (Peptide Institute). […] RelA^−/− MEFs were treated with (10-50 μM) sphingosine (Calbiochem) and the number of live GFP-positive adherent cells was counted by flow cytometry after 2 h.
Death effector assays. Death effector pathways were induced in […] MEFs by treatment TNF-α (0.2 ng/ml) and CHX (0.1 μg/ml). […] Protein concentration was determined by Lowry assay (DC-protein assay kit, Biorad). […]
Colorimetric assays for capases were performed in reaction buffer (50 mM HEPES, pH 7.4, 100 mM NaCl, 10 mM DTT, 1 mM EDTA, 10% glycerol, 0.1% CHAPS) at 37° C. on crude cytoplasmic extracts using p-Nitoaniline (pNA)-labeled substrates (Calbiochem) specific for caspases 3 and 7 (Ac-DEVD-pNA), caspase 8 (Ac-IETD-pNA), caspase 9 (Ac-LEHD-pNA), each at 0.2 mM. Specific activity was determined by subtracting the apparent activity detected after 1 h pre-incubation of extract with the pan-caspase inhibitor Z-VAD.fmk at 50 μM (ICN Biomedicals Inc), then normalizing for the amount of protein. […] Specific activity was determined by subtracting the apparent activity detected after 30 min pre-incubation of extract at 37° C. with the cathespin B inhibitor CA-074 Me at 30 μM (Peptide Institute) then normalizing for the amount of protein.

[3] = test system: caspase activity; test: Caspase activity enzyme assay, NIH3T3 cells; type: cell-based; settings: Z-VAD.fmk 50 μM, 1 h pre-treatment; verified by enzyme assay
Procedure: (§1) TNF-α death assays. NIH3T3 cells were transduced with MIGR1 retrovirus (Zhang and Ren, 1998) encoding either GFP alone, or Spi2A in the forward (sense) or reverse (antisense) orientation and stable clones generated, as described previously (Liu et al., 2003). Cells were treated with TNF-α (R&D) and after 16 h the number of live GFP-positive adherent cells were counted by flow cytometry (Liu et al., 2003). Live cells were defined as those that excluded propidium iodide (PI-negative) and had the appropriate size, as defined by forward and side light scatter characteristics. Caspase activity was inhibited by pre-treatment of cells or extracts for 1 h with Z-VAD.fmk (ICN Biomedicals Inc; 50 μM). […] In anti-sense experiments the level of Spi2A mRNA was quantitated by real-time PCR using primers and probes specific for Spi2A (Inglis et al., 1991) and cyclofilin A control mRNA (Medhurst et al., 2000), 4 h after treatment with Z-VAD.fmk ([…]) and TNF-α (10 ng/ml), as described previously (Liu et al., 2003).

[4] = test system: NIH3T3 cells; test: TNF-α death assays, NIH3T3 cells; type: cell-based; settings: Z-VAD.fmk 50 μM, TNF-α 10 ng/ml, 16 h; FIG. 9A
Procedure: as §1

Q: What does the source list for `CCCNC(=O)[C@H]1O[C@@H]1C(=O)N[C@H](C(=O)N1CCC[C@H]1C(=O)OC)[C@@H](C)CC` [CA-074 Me, reference compound]?
A: Protection from TNF-α-induced death (percentage survival) ([1]; CA-074 Me 30 μM, TNF-α 0.5 ng/ml, FIG. 1A): protected; Inhibition of cathepsin B activity in MEFs ([2]; CA-074 Me 30 μM, 1 h pre-treatment, verified by enzyme assay): complete inhibition

Q: With `COC(=O)C[C@H](NC(=O)[C@H](C)NC(=O)[C@@H](NC(=O)OCc1ccccc1)C(C)C)C(=O)CF` [Z-VAD.fmk, reference compound] (Cbz-Val-Ala-Asp(OMe)-CH2F) as the compound, how does the “Inhibition of caspase activity” value [3] read?
A: complete inhibition

Q: What about the “Sensitization to PCD by TNF-α (percentage survival)” value [4] of the same compound?
A: sensitized

Q: For “RelA: human RelA (p65) cDNA expressed from MIGR1 retrovirus in RelA^−/− MEFs [reference compound]”, which “Percentage survival after TNF-α and CHX, retrovirally transduced cells vs GFP” value ([1]; 16 h, FIG. 1B, 2B) is on record?
A: complete protection

Q: And the “Cytosolic cathepsin B activity after TNF-α, retrovirally transduced cells” value ([2]; TNF-α 0.2 ng/ml, CHX 0.1 μg/ml, FIG. 1C, 7A)?
A: extinguished
